According to US20070264679A1, “Method for analyzing the activity of lipoxygenase using a water-soluble substrate” (Chungnam National University Industry Collaboration …, priority 2006, published 2007):

Experiments:
[1] = target: T1, Rabbit reticulocyte 15-lipoxygenase (reticulocyte LOX) (Oryctolagus cuniculus, UniProt P12530); assay: Oxygenation of arachidonoyl lysophospholipids by reticulocyte LOX; format: biochemical; settings: reticulocyte LOX 2 units/ml, 50 mM phosphate buffer pH 7.4
T1 construct: purchased Biomol Inc. (Plymouth Meeting, Pa., USA)
T1 sequence (P12530 1-663): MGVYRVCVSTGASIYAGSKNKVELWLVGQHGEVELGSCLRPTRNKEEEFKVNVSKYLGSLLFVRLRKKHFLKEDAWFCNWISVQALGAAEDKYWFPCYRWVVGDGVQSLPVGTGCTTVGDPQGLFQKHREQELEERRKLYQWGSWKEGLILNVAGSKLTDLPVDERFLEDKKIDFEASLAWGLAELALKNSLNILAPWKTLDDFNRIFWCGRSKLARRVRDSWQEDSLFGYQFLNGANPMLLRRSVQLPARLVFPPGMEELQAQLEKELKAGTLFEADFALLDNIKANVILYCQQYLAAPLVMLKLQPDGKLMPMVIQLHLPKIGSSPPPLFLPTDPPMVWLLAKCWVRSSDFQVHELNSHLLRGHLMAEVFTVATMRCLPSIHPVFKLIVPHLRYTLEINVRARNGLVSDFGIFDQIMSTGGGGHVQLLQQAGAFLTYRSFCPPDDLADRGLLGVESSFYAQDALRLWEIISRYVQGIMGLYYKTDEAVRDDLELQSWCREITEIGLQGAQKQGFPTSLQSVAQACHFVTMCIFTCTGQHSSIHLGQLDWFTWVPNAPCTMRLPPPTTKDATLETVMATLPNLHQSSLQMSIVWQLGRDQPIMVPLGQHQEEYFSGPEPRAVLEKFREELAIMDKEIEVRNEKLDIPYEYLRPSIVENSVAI
Experimental: (§1) Activities of various LOXs were monitored by measuring the increase in absorbance at 234 nm due to the formation of hydroperoxide (ε234=25,000 M^−1 cm^−1) at 25° C. as described before (Smith et al, J. Biol. Chem. 247 (1972) 1038-1047). One unit is defined as the amount of LOXs that can produce one nanomole of conjugated diene per min. The reaction mixture (500 μl) included reticulocyte LOX (2 units/ml) in 50 mM phosphate buffer (pH 7.4), porcine leukocyte LOX (1 unit/ml) in 100 mM phosphate buffer (pH 7.5) containing 5 mM EDTA and 0.03% Tween 20, or soybean LOX-1 (2.5 units/ml) in 50 mM borax buffer (pH 9.0) at 25° C. The reactions were started by including each substrate (100 μM) into the above reaction mixture.
(§2) Reticulocyte LOX (2 units/ml), leukocyte LOX (1 units/ml) or soybean LOX-1 (2.5 units/ml) was incubated with each arachidonoyl derivative substrate of various concentrations as described above. The values of kinetic parameters were obtained according to Lineweaver Burke plot analyses as described before (Barroso et al, J. Chromatogr. B. Analyt. Technol. Biomed. Life. Sci. 814 (2005) 21-28).
It is noteworthy that the efficacy of arachidonoyl-lysoPC as a substrate for leukocyte LOX was approximately 10-fold greater than that of arachidonic acid. In an additional study, the oxygenation of arachidonoyl-lysoPC or arachidonoyl-lysoPA by reticulocyte LOX was examined. […]

soybean LOX-1 = target: T2, soybean LOX-1 (Glycine max, UniProt P08170); assay: Kinetics of oxygenation of arachidonic acid or arachidonoyl-lysophospholipids by soybean LOX-1; format: biochemical; settings: soybean LOX-1 2.5 units/ml; for Km: 50 mM borax buffer pH 9.0, 25° C.; for Vm: 50 mM borax buffer pH 9.0, unit = one nanomole conjugated diene per min
T2 construct: purchased Sigma-Aldrich Corp (St. Louis, Mo., USA) lipoxidase Type I-B
T2 sequence (P08170 1-839): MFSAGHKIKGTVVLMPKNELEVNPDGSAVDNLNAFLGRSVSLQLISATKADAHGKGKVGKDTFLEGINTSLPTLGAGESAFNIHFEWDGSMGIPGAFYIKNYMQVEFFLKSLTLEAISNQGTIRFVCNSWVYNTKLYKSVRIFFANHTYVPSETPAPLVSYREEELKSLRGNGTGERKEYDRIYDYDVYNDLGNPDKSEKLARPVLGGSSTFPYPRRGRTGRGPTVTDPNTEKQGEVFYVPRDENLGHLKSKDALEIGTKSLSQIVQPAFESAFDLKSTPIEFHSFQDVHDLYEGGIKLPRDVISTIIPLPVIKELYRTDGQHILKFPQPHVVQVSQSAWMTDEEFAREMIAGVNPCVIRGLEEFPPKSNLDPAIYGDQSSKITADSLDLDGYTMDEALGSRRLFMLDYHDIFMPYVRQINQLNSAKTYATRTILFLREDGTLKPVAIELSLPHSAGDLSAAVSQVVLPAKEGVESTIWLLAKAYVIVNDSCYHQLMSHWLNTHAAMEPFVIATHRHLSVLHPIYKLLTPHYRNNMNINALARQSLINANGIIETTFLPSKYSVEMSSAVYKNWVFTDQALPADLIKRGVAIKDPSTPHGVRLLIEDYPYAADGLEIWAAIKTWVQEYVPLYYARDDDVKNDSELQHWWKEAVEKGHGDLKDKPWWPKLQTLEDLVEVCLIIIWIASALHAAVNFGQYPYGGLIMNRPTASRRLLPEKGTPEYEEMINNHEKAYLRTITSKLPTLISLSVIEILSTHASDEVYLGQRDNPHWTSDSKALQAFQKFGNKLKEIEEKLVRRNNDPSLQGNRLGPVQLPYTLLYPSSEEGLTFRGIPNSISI
Experimental: as §1, §2

CCCCC/C=C\C/C=C\C/C=C\C/C=C\CCCC(=O)OCC(O)COP(=O)([O-])OCC[N+](C)(C)C (centres unmarked) [Arachidonoyl-lysoPC, 1-Arachidonoyl lysophosphatidylcholine] was tested, and the “Vm/Km value in reticulocyte LOX-catalyzed oxygenation compared with arachidonic acid” value [1] was “somewhat greater than that of arachidonic acid”, the Km (soybean LOX-1) was 5.37 ± 1.6 µM and the Km (soybean LOX-1; listed as arachidonoyl-lysoPC) was 5.4 µM. For the same compound, the Vm (soybean LOX-1) was 97.0 ± 8.2 units/μg and the Vm (soybean LOX-1; listed as arachidonoyl-lysoPC) was 97.0 units/μg.
